According to patent publication US9701669B2, “Preparation and use of 7a-amide substituted- 6,6-difluoro bicyclic himbacine derivatives as PAR-1 receptor antagonists” (Merck Sharp & Dohme Corp., priority 2013, dated 2017):
Where two headings read alike, the source gives them in different places.

Columns and labels:
PAR-1 receptor = PAR-1 receptor (Homo sapiens (Human), UniProt P25116); test: PAR-1 FLIPR Assay; type: cell-based; conditions: for IC50: HEK 293 cells, calcium signal after PAR-1 selective receptor-activating peptide at 80% activation
Method: This assay measures the potency of the inventive compounds as PAR-1 receptor antagonists.
Frozen HEK 293 Cells were plated in 384-well PDL coated plates at 12000 cells/well in 50 uL of DMEM media containing 10% FBS, pen/strep/L-Glutamine and non-essential amino acids, incubated overnight at 37° C./5% CO2. Media was then removed from the cells, incubated with 33 ul of Calcium-5 dye in assay buffer (Hank's buffer containing 20 mM HEPES, 0.04% Chaps and 2.5 mM Probenecid) for 60 minutes at 37° C. 2 uL of varying concentrations of compound in 40% DMSO in assay buffer (final DMSO concentration is 2.3%) were then added to the cells and incubated at 25° C. for 30 minutes. […] The range of peptide was from 1.5-3 μM. The final volume was 40 uL/well, with 2% DMSO. […] The data were analyzed by taking the peak signal over a portion of the range of the 60 scans and dividing this signal by the minimum signal for that same range.

[1] = target: human Ether-á-go-go Related Gene (hERG) ion channel (Homo sapiens (Human), UniProt Q12809); test: MK-499 Filter Binding Assay
Method: This assay is used to evaluate the potential of a compound to cause drug-induced long QT syndrome.
Drug cardiac arrhythmia is an important safety concern for pharmaceutical development and health regulatory authorities.
Then, 30 μL wash buffer (10 mM HEPES/NaOH, pH 7.4, 130 mM NaCl, 2 mM MgCl2, 1 mM CaCl2) equilibrated to RT were added to each well of the assay plate and subsequently transferred to the filter plate. The assay mixture was aspirated through the filter plate using a Biotek ELx405™ washer. The filter plate was washed twice with 100 μl cold wash buffer per wash and well and then dried in a drying oven for at least 75 min at 55° C. Afterwards, the bottom of each filter plate was heat sealed with a solid foil seal, then 10 μL of Microscint™ 0 (Perkin Elmer) were added to each well of the filter plate and finally, the top of each filter plate was sealed with a clear seal. The plates were stored for at least 20 min in a MicroBeta2 reader (Perkin Elmer) before they are counted (60 sec/well).

[2] = membranes from HEK293 cell line expressing hERG, [35S]MK-0499 radioligand, read-out: MK499 IC50

Sequence of human Ether-á-go-go Related Gene (hERG) ion channel (Q12809 whole entry): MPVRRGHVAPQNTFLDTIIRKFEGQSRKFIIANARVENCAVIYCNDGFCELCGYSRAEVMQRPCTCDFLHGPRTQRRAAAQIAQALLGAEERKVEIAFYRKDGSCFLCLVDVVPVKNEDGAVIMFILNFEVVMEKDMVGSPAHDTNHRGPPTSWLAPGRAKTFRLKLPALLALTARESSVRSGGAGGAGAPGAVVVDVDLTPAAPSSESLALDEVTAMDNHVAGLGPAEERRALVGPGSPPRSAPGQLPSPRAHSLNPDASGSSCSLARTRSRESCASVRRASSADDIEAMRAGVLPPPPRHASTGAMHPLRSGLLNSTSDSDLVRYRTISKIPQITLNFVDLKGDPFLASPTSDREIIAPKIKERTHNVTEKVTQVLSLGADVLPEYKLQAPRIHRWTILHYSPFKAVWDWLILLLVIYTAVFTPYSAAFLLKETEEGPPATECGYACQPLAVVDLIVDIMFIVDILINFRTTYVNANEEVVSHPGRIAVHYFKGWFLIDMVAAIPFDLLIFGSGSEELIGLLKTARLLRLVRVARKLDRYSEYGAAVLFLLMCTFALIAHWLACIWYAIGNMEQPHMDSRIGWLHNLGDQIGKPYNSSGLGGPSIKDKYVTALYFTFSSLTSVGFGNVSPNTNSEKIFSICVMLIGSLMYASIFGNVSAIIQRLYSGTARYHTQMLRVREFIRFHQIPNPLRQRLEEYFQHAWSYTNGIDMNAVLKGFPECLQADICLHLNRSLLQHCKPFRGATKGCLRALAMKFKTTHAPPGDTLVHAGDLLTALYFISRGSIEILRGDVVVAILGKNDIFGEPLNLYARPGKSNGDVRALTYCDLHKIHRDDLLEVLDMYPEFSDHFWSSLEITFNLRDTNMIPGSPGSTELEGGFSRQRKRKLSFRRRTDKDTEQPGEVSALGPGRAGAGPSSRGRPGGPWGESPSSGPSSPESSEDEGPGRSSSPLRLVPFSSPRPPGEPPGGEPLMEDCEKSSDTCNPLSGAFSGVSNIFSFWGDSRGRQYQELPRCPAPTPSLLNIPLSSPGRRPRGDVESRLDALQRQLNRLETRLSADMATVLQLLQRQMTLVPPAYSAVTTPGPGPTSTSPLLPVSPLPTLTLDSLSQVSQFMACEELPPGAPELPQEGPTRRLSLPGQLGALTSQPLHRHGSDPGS
Sequence of PAR-1 receptor (P25116 22-425): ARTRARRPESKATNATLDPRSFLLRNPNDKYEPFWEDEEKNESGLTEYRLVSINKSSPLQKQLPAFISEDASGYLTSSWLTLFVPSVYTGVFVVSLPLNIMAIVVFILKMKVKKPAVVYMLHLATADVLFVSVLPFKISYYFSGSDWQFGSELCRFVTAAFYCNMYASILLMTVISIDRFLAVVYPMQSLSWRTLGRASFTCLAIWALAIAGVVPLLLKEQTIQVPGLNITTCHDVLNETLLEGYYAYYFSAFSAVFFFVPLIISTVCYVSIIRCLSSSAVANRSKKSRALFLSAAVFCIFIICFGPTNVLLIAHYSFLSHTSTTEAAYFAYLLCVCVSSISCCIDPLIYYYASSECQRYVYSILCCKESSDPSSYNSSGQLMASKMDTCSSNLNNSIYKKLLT

Compound `C[C@H]1OC(=O)[C@]2(CCC(N)=O)CC(F)(F)[C@@H](C)[C@H](/C=C/c3ccc(-c4ccccc4C#N)cn3)[C@H]12` [Example 14, 3-((1R,3aR,6S,7R,7aS)-7-((E)-2-(5-(2-cyanophenyl)pyridin-2-yl)vinyl)-5,5-difluoro-1,6-dimethyl-3-oxooctahydroisobenzofuran-3a-yl)propanamide] has an IC50 (PAR-1 receptor) of 4.4 nM.
Work on `C[C@H]1OC(=O)[C@]2(N3CC(C(N)=O)C3)CC(F)(F)[C@@H](C)[C@H](/C=C/c3ccc(-c4cccc(F)c4)cn3)[C@H]12` [Example 13, 1-((1R,3aS,6S, 7R,7aS)-5,5-difluoro-7-((E)-2-(5-(3-fluorophenyl)pyridin-2-yl)vinyl)-1,6-dimethyl-3-oxo-octahydro-isobenzofuran-3a-yl)azetidine-3-carboxamide] yielded an IC50 (PAR-1 receptor) of 13.9 nM.
`Cc1nc(/C=C/[C@@H]2[C@@H]3[C@@H](C)OC(=O)[C@]3(C(N)=O)CC(F)(F)[C@H]2C)ccc1-c1ccccc1C#N` [Example 4, (1R,3aR,6S,7R, 7aS)-7-((E)-2-(5-(2-cyanophenyl)-6-methylpyridin-2-yl)vinyl)-5,5-difluoro-1,6-dimethyl-3-oxooctahydro-isobenzofuran-3a-carboxamide] showed an IC50 ([1]; human, pH 7.4) of 60000 nM.
`C[C@H]1OC(=O)[C@]2(C(C)(C)C(N)=O)CC(F)(F)[C@@H](C)[C@H](/C=C/c3ccc(-c4ccccc4C#N)cn3)[C@H]12` [Example 21, 2-((1R,3aR,6S,7R,7aS)-7-((E)-2-(5-(2-cyanophenyl)pyridin-2-yl)vinyl)-5,5-difluoro-1,6-dimethyl-3-oxooctahydroisobenzofuran-3a-yl)-2-methylpropanamide] was tested, and the IC50 (PAR-1 receptor) was 17.1 nM.
With `C[C@H]1OC(=O)[C@]2(CC(N)=O)CC(F)(F)[C@@H](C)[C@H](/C=C/c3ccc(-c4ccccc4C#N)cn3)[C@H]12` [Example 5, 2-((1R,3aR,6S,7R,7aS)-7-((E)-2-(5-(2-cyanophenyl)pyridin-2-yl)vinyl)-5,5-difluoro-1,6-dimethyl-3-oxooctahydroisobenzofuran-3a-yl)acetamide] the IC50 (PAR-1 receptor) was 3.14 nM.
`C[C@H]1OC(=O)[C@]2(C(N)=O)CC(F)(F)[C@@H](C)[C@H](/C=C/c3ccc(-c4cccnc4C#N)cn3)[C@H]12` [Example 11] was tested, and the IC50 [1, 2] was 60000 nM and the IC50 (PAR-1 receptor) was 9.68 nM.
`C[C@H]1OC(=O)[C@]2(C(N)=O)CC(F)(F)[C@@H](C)[C@H](/C=C/c3ccc(-c4cccc5c4OC(F)(F)O5)cn3)[C@H]12` [Example 10, (1R,3aR,6S,7R,7aS)-7-((E)-2-(5-(2,2-difluorobenzo[d][1,3]dioxol-4-yl)pyridin-2-yl)vinyl)-5,5-difluoro-1,6-dimethyl-3-oxooctahydroisobenzofuran-3a-carboxamide] gave an IC50 [1, 2] of 15400 nM and an IC50 (PAR-1 receptor) of 4.49 nM.
Work on `COc1ncccc1-c1ccc(/C=C/[C@@H]2[C@@H]3[C@@H](C)OC(=O)[C@]3(CC(N)=O)CC(F)(F)[C@H]2C)nc1` [Example 16, 2-((1R,3aR,6S, 7R,7aS)-5,5-difluoro-7-((E)-2-(2′-methoxy-[3,3′-bipyridin]-6-yl)vinyl)-1,6-dimethyl-3-oxooctahydro-isobenzofuran-3a-yl)acetamide] yielded an IC50 [1, 2] of 25900 nM and an IC50 (PAR-1 receptor) of 104 nM.
`C[C@H]1OC(=O)[C@]2(C(O)C(N)=O)CC(F)(F)[C@@H](C)[C@H](/C=C/c3ccc(-c4ccccc4C#N)cn3)[C@H]12` (mixture of isomers) [Example 20, (S and R)-2-((1R,3aR,6S, 7R,7aS)-7-((E)-2-(5-(2-cyanophenyl)pyridin-2-yl)vinyl)-5,5-difluoro-1,6-dimethyl-3-oxooctahydro-isobenzofuran-3a-yl)-2-hydroxyacetamide] showed an IC50 (PAR-1 receptor) of 4.41 nM.
With `C[C@H]1OC(=O)[C@]2(CCC(N)=O)CC(F)(F)[C@@H](C)[C@H](/C=C/c3ccc(-c4cccnc4C#N)cn3)[C@H]12` [Example 15, 3-((1R,3aR,6S, 7R,7aS)-7-((E)-2-(2′-cyano-[3,3′-bipyridin]-6-yl)vinyl)-5,5-difluoro-1,6-dimethyl-3-oxooctahydro-isobenzofuran-3a-yl)propanamide] the IC50 ([1]; human, pH 7.4) was 60000 nM and the IC50 (PAR-1 receptor) was 6.34 nM.
For `COC(C(N)=O)[C@@]12CC(F)(F)[C@@H](C)[C@H](/C=C/c3ccc(-c4ccccc4C#N)cn3)[C@@H]1[C@@H](C)OC2=O` (mixture of isomers) [Example 19, (S and R)-2-((1R,3aR,6S,7R,7aS)-7-((E)-2-(5-(2-cyanophenyl)pyridin-2-yl)vinyl)-5,5-difluoro-1,6-dimethyl-3-oxooctahydroisobenzofuran-3a-yl)-2-methoxyacetamide], the IC50 [1, 2] was 47700 nM and the PAR-1 FLIPR IC50 (PAR-1 receptor; unit printed as 'mn' (apparent misprint of nM), same assay as E1, unit of the source corrected) was 3.02 nM.
In the case of `C[C@H]1OC(=O)[C@]2(CC(N)=O)CC(F)(F)[C@@H](C)[C@H](/C=C/c3ccc(-c4cccnc4C#N)cn3)[C@H]12` [Example 17, 2-((1R,3aR,6S, 7R,7aS)-7-((E)-2-(2′-cyano-[3,3′-bipyridin]-6-yl)vinyl)-5,5-difluoro-1,6-dimethyl-3-oxooctahydro-isobenzofuran-3a-yl)acetamide], the IC50 (PAR-1 receptor) is reported as 21.2 nM.
Work on `Cc1c(F)cccc1-c1ccc(/C=C/[C@@H]2[C@@H]3[C@@H](C)OC(=O)[C@]3(C(N)=O)CC(F)(F)[C@H]2C)nc1` [Example 3, (1R,3aR, 6S,7R,7aS)-5,5-difluoro-7-((E)-2-(5-(3-fluoro-2-methylphenyl)pyridin-2-yl)vinyl)-1,6-dimethyl-3-oxooctahydro-isobenzofuran-3a-carboxamide] yielded an IC50 [1, 2] of 12000 nM and an IC50 (PAR-1 receptor) of 1.37 nM.
`C[C@H]1OC(=O)[C@]2(C(N)=O)CC(F)(F)[C@@H](C)[C@H](/C=C/c3ccc(-c4ccccc4C#N)cn3)[C@H]12` [Example 1, (1R,3aR,6S,7R,7aS)-7-((E)-2-(5-(2-cyanophenyl)pyridin-2-yl)vinyl)-5,5-difluoro-1,6-dimethyl-3-oxooctahydroisobenzofuran-3a-carboxamide] gave an IC50 (PAR-1 receptor) of 2.93 nM.
In the case of `C[C@H]1OC(=O)[C@]2(N3CC(C(N)=O)C3)CC(F)(F)[C@@H](C)[C@H](/C=C/c3ccc(-c4ccccc4C#N)cn3)[C@H]12` [Example 12, 1-((1R,3aS,6S,7R,7aS)-7-((E)-2-(5-(2-cyanophenyl)pyridin-2-yl)vinyl)-5,5-difluoro-1,6-dimethyl-3-oxo-octahydroisobenzofuran-3a-yl)azetidine-3-carboxamide], the IC50 [1, 2] is reported as 16300 nM and the IC50 (PAR-1 receptor) is reported as 5.7 nM.
`Cc1cccc(-c2ccc(/C=C/[C@@H]3[C@@H]4[C@@H](C)OC(=O)[C@]4(C(N)=O)CC(F)(F)[C@H]3C)nc2)c1F` [Example 2, (1R,3aR,6S,7R, 7aS)-5,5-difluoro-7-((E)-2-(5-(2-fluoro-3-methylphenyl)pyridin-2-yl)vinyl)-1,6-dimethyl-3-oxooctahydro-isobenzofuran-3a-carboxamide] was tested, and the IC50 [1, 2] was 13000 nM and the IC50 (PAR-1 receptor) was 3.8 nM.
`C[C@H]1OC(=O)[C@]2(NCC(N)=O)CC(F)(F)[C@@H](C)[C@H](/C=C/c3ccc(-c4ccccc4C#N)cn3)[C@H]12` [Example 18, 2-(((1R,3aS,6S,7R,7aS)-7-((E)-2-(5-(2-cyanophenyl)pyridin-2-yl)vinyl)-5,5-difluoro-1,6-dimethyl-3-oxooctahydroisobenzofuran-3a-yl)amino)acetamide] was tested, and the IC50 (PAR-1 receptor) was 4.3 nM.
